≈ marks a conversion by molar mass, not a printed value.
What was measured:
Human adenovirus 5 = assay: Antiviral activity against human adenovirus 5 infected in HEK293 cells assessed as reduction in viral induced cytopathogenicity incubated for 5 days by Celltiter-Glo luminescent cell viability assay; type: functional, organism-based; conditions: Human mastadenovirus C, HEK293, 120 h
[1] = High throughput equilibrium solubility at pH 6.8; type: physicochemical; conditions: buffer
[2] = Permeability from basolateral to apical side in human Caco2 cells; type: ADME, cell-based; conditions: Caco-2, read-out: permeability
[3] = Inhibition of human adenovirus serotype 8 adenain protease expressed in Escherichia coli […] (DE3) using Ac-WLRGG*ARC(PT14)-NH2 as substrate by FLT assay; set-up: species or system Human adenovirus 8
[4] = Permeability from apical to basolateral side in human Caco2 cells; type: ADME, cell-based; conditions: Caco-2, read-out: permeability
[5] = Inhibition of human adenovirus serotype 5 adenain protease expressed in Escherichia coli […] (DE3) using Ac-WLRGG*ARC(PT14)-NH2 as substrate by FLT assay; set-up: species or system Human adenovirus 5
[6] = Inhibition of adenovirus adenain; set-up: species or system unidentified adenovirus

| Structure (SMILES) | solubility thermodynamic [1] [µM] | Papp B→A [2] [nm/s] | IC50 [3] [µM] | Papp A→B [4] [nm/s] | IC50 [5] [µM] | IC50 [6] [µM] | EC50 (Human adenovirus 5) [µM] |
| --- | --- | --- | --- | --- | --- | --- | --- |
| COC[C@H](NC(=O)Cc1cc(Cl)cc(Cl)c1)C(=O)NCc1ccnc(C#N)n1 | 52 (≈ 22 µg/mL) | 148 | 0.004 | 232 | 0.002 |  | 3.2 |
| C[C@@H](O)[C@H](NC(=O)Cc1cc(Cl)cc(Cl)c1)C(=O)NCc1ccnc(C#N)n1 | 556 (≈ 235 µg/mL) | 141 | 0.003 | 122 | 0.002 |  | 1.2 |
| CS(=O)(=O)N[C@H](C(=O)N[C@@H](Cc1ccccc1)C(=O)NCC(=O)NCC#N)c1cccc(Cl)c1 | 170 (≈ 86 µg/mL) | 75 | 0.04 | 12 | 0.03 | 0.04 |  |
| N#Cc1ncc(C(=O)NCc2ccccc2)cn1 |  |  |  |  |  | 24 |  |
| N#CCNC(=O)CNC(=O)[C@H](Cc1ccccc1)NC(=O)Cc1cccc(Cl)c1 | 150 (≈ 61.9 µg/mL) | 74 | 0.38 | 12 | 0.28 |  |  |
| N#CCNC(=O)CNC(=O)[C@H](Cc1ccccc1)NC(=O)Cc1cc(Cl)cc(Cl)c1 | 30 (≈ 13.4 µg/mL) | 81 | 0.07 | 12 | 0.04 |  |  |
| N#CCNC(=O)CNC(=O)[C@H](CN)NC(=O)Cc1cc(Cl)cc(Cl)c1 | 891 (≈ 344 µg/mL) | 12 | 0.08 | 10 | 0.04 |  |  |
| CC(C)(C)[C@H](NC(=O)Cc1cc(Cl)cc(Cl)c1)C(=O)NCC(=O)NCC#N | 85 (≈ 35.1 µg/mL) | 238 | 0.08 | 54 | 0.04 |  |  |
| CC[C@H](C(=O)N[C@H](C(=O)NCC(=O)NCC#N)[C@@H](C)O)c1cc(Cl)cc(Cl)c1 | 1000 (≈ 429 µg/mL) | 180 | 0.03 | 26 | 0.005 |  |  |
| CC(C(=O)N[C@@H](Cc1ccccc1)C(=O)NCC(=O)NCC#N)c1cc(Cl)cc(Cl)c1 (mixture of isomers) | 50 |  | 0.03 |  | 0.006 |  |  |
| N#CCNC(=O)CNC(=O)C(Cc1ccccn1)NC(=O)Cc1cc(Cl)cc(Cl)c1 (racemic) | 111 (≈ 49.8 µg/mL) | 150 | 0.36 | 7 | 0.14 |  |  |

Second part, led by results:

| solubility thermodynamic [1] [µM] | Papp B→A [2] [nm/s] | IC50 [3] [µM] | Papp A→B [4] [nm/s] | IC50 [5] [µM] | IC50 [6] [µM] | Structure (SMILES) | EC50 (Human adenovirus 5) [µM] |
| --- | --- | --- | --- | --- | --- | --- | --- |
| 5 (≈ 2.21 µg/mL) | 122 | 0.02 | 73 | 0.01 |  | CC[C@H](C(=O)N[C@H](C(=O)NCC(=O)NCC#N)C(C)(C)C)c1cc(Cl)cc(Cl)c1 | 2.5 |
| 236 (≈ 106 µg/mL) | 113 | 0.02 | 183 | 0.008 |  | CC[C@H](C)[C@H](NC(=O)[C@@H](O)c1cc(Cl)cc(Cl)c1)C(=O)NCc1ccnc(C#N)n1 | 7.2 |
|  | 32 | 0.07 | 22 |  |  | N#CCNC(=O)CNC(=O)[C@H](Cc1ccccc1)NC(=O)[C@@H](O)c1cccc(Cl)c1 |  |
| 121 (≈ 48.6 µg/mL) |  | 0.08 |  | 0.03 |  | C[C@@H](O)[C@H](NC(=O)Cc1cc(Cl)cc(Cl)c1)C(=O)NCC(=O)NCC#N |  |
|  | 280 | 0.05 | 30 | 0.05 |  | CC[C@H](C)[C@H](NC(=O)[C@@H](O)c1cc(Cl)cc(Cl)c1)C(=O)NCC(=O)NCC#N |  |
| 61 | 101 | 0.06 | 178 | 0.02 |  | CC[C@H](C)[C@H](NC(=O)C(c1cc(Cl)cc(Cl)c1)N(C)C)C(=O)NCc1ccnc(C#N)n1 (mixture of isomers) | 6.7 |

Reference: ChEMBL document CHEMBL3351504, “Discovery and structure-based optimization of adenain inhibitors” (ACS Med Chem Lett, 2014)
